Reference: patent US20100048480A1, “PRODUCTION OF ANTI-MICROBIAL PEPTIDES” (priority 2006, published 2010)

System: Citrobacter rodentium
Assay: Functionality assay (antimicrobial activity, killing of bacteria)
Assay type: cell-based
Description: One skilled in the art will appreciate that similar methods can be used to confirm the functionality of any AMP of interest, such as a defensin. The OD600 of a Citrobacter rodentium overnight culture was measured and a dilution series was performed. 100 μl of a 7.1×10^2 bacteria/ml dilution was used in the functionality assay. […] For LL37, the positive control had 20 μM pure synthetic LL37 (Microchem Facility, Emory) added, and LL37 peptide obtained in Example 2 was added at 8.5 μg (250 μl) or 17 μg (500 μl) (FIG. 3). 20 μM concentration of the synthetic peptides equals 8.8 μg added.

[1] = CRAMP peptide of Example 2 at 30 μM or 53 μM, positive control 50 μM CRAMP (Sigma Genosys), FIG. 2

Row | Substance | efficiency in killing Citrobacter rodentium compared with commercially available peptide (LL37 peptide of Example 2 at 8.5 μg (250 μl) or 17 μg (500 μl), positive control 20 μM synthetic LL37, FIG. 3) | efficiency in killing Citrobacter rodentium compared with commercially available peptide [1]
1 | LL37: human cathelicidin LL37 plus N-terminal His and Met, released by sumoase from His tag-SUMO-LL37 (HMLLGDFFRKSKEKIGKEFKRIVQRIKDFLRNLVPRTES; resulting peptide when SEQ ID NO 40 treated with sumoase.) | almost as efficient in killing Citrobacter rodentium as the commercially available peptide | –
2 | CRAMP-FLAG-tag: CRAMP with C-terminal FLAG tag, released by sumoase from His tag-SUMO-CRAMP-FLAG-tag (HMGLLRKGGEKIGEKLKKIGQKIKNFFQKLVPQPEQDYKDDDDKG; C-terminal FLAG tag; Resulting peptide when SEQ ID NO 45 treated with sumoase) | – | decrease in efficacy
3 | CRAMP: mouse cathelicidin-related antimicrobial peptide, active last 34 aa, released by sumoase from recombinant His tag-SUMO-CRAMP (HMGLLRKGGEKIGEKLKKIGQKIKNFFQKLVPQPEQ; resulting protein when SEQ ID NO 47 treated with sumoase) | – | almost as efficient in killing Citrobacter rodentium as the commercially available peptide
